Experimental data published in ChEMBL document CHEMBL2046305, “Discovery of selective menaquinone biosynthesis inhibitors against Mycobacterium tuberculosis” (J Med Chem, 2012).
≈ marks a conversion by molar mass, not a printed value.

Key:
[1] = system: Mycobacterium tuberculosis; experiment: Antibacterial activity against rifampicin-resistant Mycobacterium tuberculosis H37Rv by microplate alamar blue assay; type: functional
[2] = system: Mycobacterium tuberculosis; experiment: Antibacterial activity against isoniazid-resistant Mycobacterium tuberculosis H37Rv by microplate alamar blue assay; type: functional

| Structure (SMILES) | MIC [1] [µg/mL] | MIC [2] [µg/mL] |
| --- | --- | --- |
| CO[C@H]1/C=C/O[C@@]2(C)Oc3c(C)c(O)c4c(O)c(c(/C=N/N5CCN(C)CC5)c(O)c4c3C2=O)NC(=O)/C(C)=C\C=C\[C@H](C)[C@H](O)[C@@H](C)[C@@H](O)[C@@H](C)[C@H](OC(C)=O)[C@@H]1C [RIFAMPIN] | > 4 | 0.03 (≈ 0.0365 µM) |
| NNC(=O)c1ccncc1 [ISONIAZID] | 0.05 (≈ 0.365 µM) | > 8 |
| CCCCCC[C@H](CN1CCC(COc2cccc(/C(=N\OC)c3ccc(Cl)cc3)c2)CC1)OC(N)=O | 1.51 (≈ 2.85 µM) | 1.52 (≈ 2.87 µM) |
| CCCCCC[C@H](CN1CCC(COc2cccc(C(=O)c3ccc(Cl)cc3)c2)CC1)OC(N)=O | 2.91 (≈ 5.81 µM) | 2.91 (≈ 5.81 µM) |
